Laboratory results taken from the NIST ThermoML archive (doi:10.1016/j.fluid.2017.06.022).

Test: xn = mol fraction of the nth substance listed
Conditions: Liquid, Bellows volumetry

C=C [ethene] + Cc1ccccc1
Conditions | mass density [kg/m3]
421 K, 37600 kPa, x1 = 0.3067 | 688.2
421 K, 44700 kPa, x1 = 0.3067 | 698
421 K, 51000 kPa, x1 = 0.3067 | 705.4
421 K, 58300 kPa, x1 = 0.3067 | 714.6
421 K, 63100 kPa, x1 = 0.3067 | 720.1
421 K, 66800 kPa, x1 = 0.3067 | 724
422.2 K, 2530 kPa, x1 = 0.1194 | 681.2
422.2 K, 2830 kPa, x1 = 0.1194 | 682.2
422.2 K, 3620 kPa, x1 = 0.1194 | 684.1
422.2 K, 5330 kPa, x1 = 0.1194 | 688.4
422.2 K, 7040 kPa, x1 = 0.1194 | 692.2
422.2 K, 7110 kPa, x1 = 0.1194 | 692.2
422.2 K, 10420 kPa, x1 = 0.1194 | 699.6
422.2 K, 13400 kPa, x1 = 0.1194 | 705.1
422.2 K, 17400 kPa, x1 = 0.1194 | 712.2
422.2 K, 20480 kPa, x1 = 0.1194 | 716.9
422.2 K, 22980 kPa, x1 = 0.1194 | 720.6
422.2 K, 24010 kPa, x1 = 0.1194 | 722.1
422.2 K, 30990 kPa, x1 = 0.1194 | 731.2
422.2 K, 37420 kPa, x1 = 0.1194 | 739.4
422.2 K, 44550 kPa, x1 = 0.1194 | 747.3
422.2 K, 51320 kPa, x1 = 0.1194 | 755.3
422.2 K, 58240 kPa, x1 = 0.1194 | 762.3
422.2 K, 63240 kPa, x1 = 0.1194 | 767.6
422.2 K, 67210 kPa, x1 = 0.1194 | 771.2
470.9 K, 3430 kPa, x1 = 0.1194 | 616.2
470.9 K, 3560 kPa, x1 = 0.1194 | 617.7
470.9 K, 4240 kPa, x1 = 0.1194 | 620.4
470.9 K, 4990 kPa, x1 = 0.1194 | 623.6
470.9 K, 5950 kPa, x1 = 0.1194 | 627.5
470.9 K, 7310 kPa, x1 = 0.1194 | 631.9
470.9 K, 10590 kPa, x1 = 0.1194 | 642.6
470.9 K, 14000 kPa, x1 = 0.1194 | 652.4
470.9 K, 16940 kPa, x1 = 0.1194 | 659.8
470.9 K, 24260 kPa, x1 = 0.1194 | 676.6
470.9 K, 31240 kPa, x1 = 0.1194 | 690.3
470.9 K, 37460 kPa, x1 = 0.1194 | 701.1
470.9 K, 41500 kPa, x1 = 0.1194 | 707.1
470.9 K, 44850 kPa, x1 = 0.1194 | 712.2
470.9 K, 51420 kPa, x1 = 0.1194 | 720.6
470.9 K, 58440 kPa, x1 = 0.1194 | 729.1
470.9 K, 62650 kPa, x1 = 0.1194 | 733.4
470.9 K, 67380 kPa, x1 = 0.1194 | 738.3
475.1 K, 7800 kPa, x1 = 0.3067 | 540.4
475.1 K, 8600 kPa, x1 = 0.3067 | 545.2
475.1 K, 9400 kPa, x1 = 0.3067 | 551
475.1 K, 10600 kPa, x1 = 0.3067 | 557.2
475.1 K, 12100 kPa, x1 = 0.3067 | 565.4
475.1 K, 14000 kPa, x1 = 0.3067 | 572.7
475.1 K, 17400 kPa, x1 = 0.3067 | 586
475.1 K, 20700 kPa, x1 = 0.3067 | 598.4
475.1 K, 24300 kPa, x1 = 0.3067 | 609
475.1 K, 30800 kPa, x1 = 0.3067 | 625.7
475.1 K, 37500 kPa, x1 = 0.3067 | 640.8
475.1 K, 44500 kPa, x1 = 0.3067 | 654.3
475.1 K, 51800 kPa, x1 = 0.3067 | 666.5
475.1 K, 58100 kPa, x1 = 0.3067 | 676.2
475.1 K, 63100 kPa, x1 = 0.3067 | 682.6
475.1 K, 67400 kPa, x1 = 0.3067 | 687.7
519 K, 4500 kPa, x1 = 0.1194 | 541.1
519 K, 5100 kPa, x1 = 0.1194 | 547.1
519 K, 6120 kPa, x1 = 0.1194 | 555.5
519 K, 7100 kPa, x1 = 0.1194 | 562.7
519 K, 8870 kPa, x1 = 0.1194 | 573.5
519 K, 10630 kPa, x1 = 0.1194 | 583
519 K, 13940 kPa, x1 = 0.1194 | 597.1
519 K, 14140 kPa, x1 = 0.1194 | 598.2
519 K, 17480 kPa, x1 = 0.1194 | 610.1
519 K, 24180 kPa, x1 = 0.1194 | 630.3
519 K, 31210 kPa, x1 = 0.1194 | 647.7
519 K, 38050 kPa, x1 = 0.1194 | 662.1
519 K, 44340 kPa, x1 = 0.1194 | 674.3
519 K, 51320 kPa, x1 = 0.1194 | 686.5
519 K, 51390 kPa, x1 = 0.1194 | 686.5
519 K, 58160 kPa, x1 = 0.1194 | 697.1
519 K, 63090 kPa, x1 = 0.1194 | 704.6
519 K, 66990 kPa, x1 = 0.1194 | 709.7
519.3 K, 8400 kPa, x1 = 0.3067 | 448
519.3 K, 8600 kPa, x1 = 0.3067 | 455.1
519.3 K, 9400 kPa, x1 = 0.3067 | 472
519.3 K, 10500 kPa, x1 = 0.3067 | 482.9
519.3 K, 12000 kPa, x1 = 0.3067 | 499.7
519.3 K, 13800 kPa, x1 = 0.3067 | 513.9
519.3 K, 14100 kPa, x1 = 0.3067 | 515.9
519.3 K, 15900 kPa, x1 = 0.3067 | 525.1
519.3 K, 17200 kPa, x1 = 0.3067 | 535.5
519.3 K, 20900 kPa, x1 = 0.3067 | 553.6
519.3 K, 24100 kPa, x1 = 0.3067 | 565.7
519.3 K, 31300 kPa, x1 = 0.3067 | 589.3
519.3 K, 37800 kPa, x1 = 0.3067 | 605
519.3 K, 44900 kPa, x1 = 0.3067 | 621.2
519.3 K, 51600 kPa, x1 = 0.3067 | 636.4
519.3 K, 58300 kPa, x1 = 0.3067 | 647.5
519.3 K, 63100 kPa, x1 = 0.3067 | 656.6
519.3 K, 67100 kPa, x1 = 0.3067 | 662.7
